US11999759B2, “Boronic acid derivatives and therapeutic uses thereof” (Qpex Biopharma, Inc., priority 2016, dated 2024)

Experiments:
[1] = target: VIM-1 (Pseudomonas aeruginosa, UniProt A0A0F7KYQ8); experiment: Inhibition of nitrocefin cleavage by purified VIM-1; assay type: biochemical; settings: nitrocefin reporter substrate; 10 min preincubation at room temperature; read-out: Ki (VIM-1, NCF)
[2] = target: IMP-1 (Serratia marcescens, UniProt P52699); experiment: Inhibition of imipenem cleavage by purified IMP-1; assay type: biochemical; settings: imipenem reporter substrate; 37° C.; read-out: Ki (IMP-1, IMI)
In short: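 Purified enzymes preincubated with varying inhibitor concentrations for 10 min at room temperature, then imipenem added as reporter substrate. Hydrolysis followed spectrophotometrically at 294 nm every 30 s for 30 min at 37° C; Ki values derived.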

[3] = tested on: PAM1032/KPC-2 (overexpressed MexAB-OprM); experiment: Biapenem potentiation (MPC64) in PAM1032/KPC-2; assay type: cell-based, Pseudomonas aeruginosa; set-up: PAM1032/KPC-2 Biapenem MPC64: unit not given here; settings: for PAM1032/KPC-2 Biapenem MPC64: BLI potency to decrease biapenem MIC 64-fold, from 32 to 0.5 μg/ml, efflux proficient strain
Protocol: (§1) Efflux of BLIs from Pseudomonas aeruginosa by the MexAB-OprM efflux pump was also evaluated. The plasmid expressing the gene encoding KPC-2 was introduced into two strains of P. aeruginosa, PAM1032 and PAM1154 that overexpressed or lacked MexAB-OprM, respectively. Due to expression of KPC-2 both strains became resistant to biapenem. […] Potency of BLIs to potentiate biapenem in these strains was determined. […] The ratio of MPC64 values for each BLI in PAM1032/KPC-2 (efflux proficient) and PAM1154/KPC-2 (efflux deficient) was determined to generate the Efflux Index (EI) as shown in Table 8.

[4] = target: KPC-2 (Klebsiella pneumoniae, UniProt Q9F663); experiment: Inhibition of nitrocefin cleavage by purified KPC-2; assay type: biochemical; settings: nitrocefin reporter substrate; 10 min preincubation at room temperature; read-out: Ki (KPC-2, NCF)
In short: (§2)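 Purified enzyme was preincubated with inhibitor at a range of concentrations in reaction buffer for 10 min at room temperature. Nitrocefin was then added as reporter substrate and its cleavage followed at 490 nm every 10 sec over 10 min; Ki was derived spectrophotometrically.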

[5] = target: SHV-12 (Klebsiella pneumoniae, UniProt P0AD64, E235K/G234S/L31Q); experiment: Inhibition of nitrocefin cleavage by purified SHV-12; assay type: biochemical; settings: nitrocefin reporter substrate; 10 min preincubation at room temperature; read-out: Ki (SHV-12, NCF)
Protocol: (§3) Ki values of inhibition of purified class A, C and D enzymes were determined spectrophotometrically using nitrocefin as reporter substrate. Purified enzymes were mixed with various concentrations of inhibitors in reaction buffer and incubated for 10 min at room temperature. Nitrocefin was added and substrate cleavage profiles were recorded at 490 nm every 10 sec for 10 min.

[6] = target: P99 (Enterobacter cloacae, UniProt P05364); experiment: biochemical; settings: nitrocefin reporter substrate; 10 min preincubation at room temperature; read-out: Ki (P99, NCF)
Protocol: as §3

[7] = target: Pa-AmpC (Pseudomonas aeruginosa, UniProt P24735); experiment: biochemical; settings: nitrocefin reporter substrate; 10 min preincubation at room temperature; read-out: Ki (Pa-AmpC, NCF)
Protocol: as §3

[8] = target: OXA-23 (Acinetobacter baumannii, UniProt Q9L4P2); experiment: Inhibition of nitrocefin cleavage by purified OXA-23; assay type: biochemical; settings: nitrocefin reporter substrate; 10 min preincubation at room temperature; read-out: Ki (OXA-23, NCF)
In short: as §2

[9] = target: OXA-48 (Klebsiella pneumoniae, UniProt Q6XEC0); experiment: Inhibition of nitrocefin cleavage by purified OXA-48; assay type: biochemical; settings: nitrocefin reporter substrate; 10 min preincubation at room temperature; read-out: Ki (OXA-48, NCF)
In short: as §2

[10] = tested on: PAM1154/KPC-2 (lacked MexAB-OprM); experiment: Biapenem potentiation (MPC64) in PAM1154/KPC-2; assay type: cell-based, Pseudomonas aeruginosa; set-up: PAM1154/KPC-2 Biapenem MPC64: unit not given here; settings: for PAM1154/KPC-2 Biapenem MPC64: BLI potency to decrease biapenem MIC 64-fold, from 32 to 0.5 μg/ml, efflux deficient strain
Protocol: as §1

[11] = target: CTX-M-14 (Escherichia coli, UniProt Q9L5C7); experiment: Inhibition of nitrocefin cleavage by purified CTX-M-14; assay type: biochemical; settings: nitrocefin reporter substrate; 10 min preincubation at room temperature; read-out: Ki (CTX-M-14, NCF)
Protocol: as §3

[12] = tested on: KP1054 (VIM-1); experiment: Biapenem potentiation (MPC@1), strain KP1054; assay type: cell-based; settings: strain KP1054 (VIM-1), biapenem alone
[13] = tested on: KP1086 (OXA-48); experiment: Biapenem potentiation (MPC@1), strain KP1086; assay type: cell-based; settings: strain KP1086 (OXA-48), biapenem alone
Description: (§4) Biapenem was present in the test medium at 1 Dg/mL. […] Table 4 summarizes the BLI potency of biapenem potentiation (MPC@1) for two strains overexpressing class A (KPC) and class D (OXA-48) carbapenemases. Biapenem MIC for each strain is also shown.

[14] = tested on: KP1004 (KPC-2); experiment: Biapenem potentiation (MPC@1), strain KP1004; assay type: cell-based; settings: strain KP1004 (KPC-2), biapenem alone
Description: as §4

[15] = tested on: KP1081 (NDM-1); experiment: Biapenem potentiation (MPC@1), strain KP1081; assay type: cell-based; settings: strain KP1081 (NDM-1), biapenem alone
[16] = tested on: KP1005 (CTX-M-14); experiment: Aztreonam potentiation (MPC@4), strain KP1005; settings: read-out: Aztreonam MIC
[17] = tested on: KP1009 (CTX-M-15); experiment: Aztreonam potentiation (MPC@4), strain KP1009; settings: read-out: Aztreonam MIC
[18] = tested on: EC1010 (CMY-6); experiment: Aztreonam potentiation (MPC@4), strain EC1010; settings: read-out: Aztreonam MIC
[19] = tested on: KP1004 (KPC-2); experiment: Aztreonam potentiation (MPC@4), strain KP1004; settings: read-out: Aztreonam MIC
[20] = tested on: KP1010 (SHV-12); experiment: Aztreonam potentiation (MPC@4), strain KP1010; settings: read-out: Aztreonam MIC
[21] = tested on: ec308 (SHV-5); experiment: Aztreonam potentiation (MPC@4), strain ec308; settings: read-out: Aztreonam MIC
[22] = tested on: ECL1002; experiment: Aztreonam potentiation (MPC@4), strain ECL1002; settings: read-out: Aztreonam MIC
[23] = tested on: ec302 (TEM-10); experiment: Aztreonam potentiation (MPC@4), strain ec302; settings: read-out: Aztreonam MIC
[24] = tested on: AB1053 (OXA-72); experiment: Meropenem potentiation (MPC@8), strain AB1053; assay type: cell-based; settings: Acinetobacter baumannii; strain AB1053 (OXA-72), meropenem alone
[25] = tested on: AB1054 (OXA-23); experiment: Meropenem potentiation (MPC@8), strain AB1054; assay type: cell-based; settings: Acinetobacter baumannii, read-out: Meropenem MIC
[26] = tested on: ec302 (TEM-10); experiment: Tigemonam potentiation (MPC@4), strain ec302; assay type: cell-based; settings: strain ec302 (TEM-10), tigemonam alone
[27] = tested on: KP1010 (SHV-12); experiment: Tigemonam potentiation (MPC@4), strain KP1010; settings: strain KP1010 (SHV-12), tigemonam alone
[28] = tested on: KP1005 (CTX-M-14); experiment: Tigemonam potentiation (MPC@4), strain KP1005; settings: strain KP1005 (CTX-M-14), tigemonam alone
[29] = tested on: KP1009 (CTX-M-15); experiment: Tigemonam potentiation (MPC@4), strain KP1009; settings: strain KP1009 (CTX-M-15), tigemonam alone
[30] = tested on: EC1010 (CMY-6); experiment: Tigemonam potentiation (MPC@4), strain EC1010; assay type: cell-based; settings: strain EC1010 (CMY-6), tigemonam alone
[31] = tested on: ECL1002; experiment: Tigemonam potentiation (MPC@4), strain ECL1002; assay type: cell-based; settings: strain ECL1002, tigemonam alone
[32] = tested on: ec308 (SHV-5); experiment: Tigemonam potentiation (MPC@4), strain ec308; assay type: cell-based; settings: strain ec308 (SHV-5), tigemonam alone

P99, sequence (P05364 21-381): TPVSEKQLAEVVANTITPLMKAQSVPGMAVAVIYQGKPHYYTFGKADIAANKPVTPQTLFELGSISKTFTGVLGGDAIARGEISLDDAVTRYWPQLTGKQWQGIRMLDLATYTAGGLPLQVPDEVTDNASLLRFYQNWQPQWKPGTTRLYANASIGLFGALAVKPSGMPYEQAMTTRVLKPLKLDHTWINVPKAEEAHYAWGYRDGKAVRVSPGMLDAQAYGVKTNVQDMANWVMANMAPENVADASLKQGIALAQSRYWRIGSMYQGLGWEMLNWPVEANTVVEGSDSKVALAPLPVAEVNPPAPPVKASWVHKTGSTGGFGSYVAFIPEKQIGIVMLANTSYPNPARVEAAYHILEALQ
SHV-12, sequence (P0AD64 22-286 L31Q/G234S/E235K): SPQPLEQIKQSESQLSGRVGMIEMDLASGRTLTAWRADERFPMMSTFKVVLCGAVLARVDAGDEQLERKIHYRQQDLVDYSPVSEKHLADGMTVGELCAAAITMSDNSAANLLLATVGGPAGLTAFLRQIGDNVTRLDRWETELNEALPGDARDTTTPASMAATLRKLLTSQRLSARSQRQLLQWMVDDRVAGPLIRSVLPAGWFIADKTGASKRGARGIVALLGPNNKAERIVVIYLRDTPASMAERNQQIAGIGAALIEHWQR
OXA-48, sequence (Q6XEC0 23-265, looked up): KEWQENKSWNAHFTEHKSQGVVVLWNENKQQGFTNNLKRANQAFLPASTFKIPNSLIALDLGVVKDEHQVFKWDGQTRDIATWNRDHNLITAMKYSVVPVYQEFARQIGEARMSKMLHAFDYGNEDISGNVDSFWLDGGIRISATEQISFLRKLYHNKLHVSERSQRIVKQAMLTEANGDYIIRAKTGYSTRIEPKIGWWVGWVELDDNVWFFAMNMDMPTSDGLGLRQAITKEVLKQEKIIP
CTX-M-14, sequence (Q9L5C7 29-291, species assumed): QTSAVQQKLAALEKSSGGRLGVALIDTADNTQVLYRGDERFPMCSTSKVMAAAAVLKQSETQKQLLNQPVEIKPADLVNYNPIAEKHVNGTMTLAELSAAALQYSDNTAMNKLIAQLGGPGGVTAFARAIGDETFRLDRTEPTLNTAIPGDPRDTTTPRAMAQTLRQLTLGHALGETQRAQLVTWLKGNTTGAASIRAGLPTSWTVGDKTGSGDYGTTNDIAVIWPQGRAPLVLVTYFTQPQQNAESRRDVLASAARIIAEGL
IMP-1, sequence (P52699 19-246, looked up, species assumed): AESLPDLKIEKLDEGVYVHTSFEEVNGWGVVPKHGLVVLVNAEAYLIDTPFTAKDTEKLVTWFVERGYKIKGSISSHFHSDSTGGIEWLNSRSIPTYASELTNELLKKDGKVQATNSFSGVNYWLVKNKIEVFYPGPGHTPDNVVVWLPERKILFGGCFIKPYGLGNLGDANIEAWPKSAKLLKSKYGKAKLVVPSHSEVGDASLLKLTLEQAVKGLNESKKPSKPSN
Pa-AmpC, sequence (P24735 27-397): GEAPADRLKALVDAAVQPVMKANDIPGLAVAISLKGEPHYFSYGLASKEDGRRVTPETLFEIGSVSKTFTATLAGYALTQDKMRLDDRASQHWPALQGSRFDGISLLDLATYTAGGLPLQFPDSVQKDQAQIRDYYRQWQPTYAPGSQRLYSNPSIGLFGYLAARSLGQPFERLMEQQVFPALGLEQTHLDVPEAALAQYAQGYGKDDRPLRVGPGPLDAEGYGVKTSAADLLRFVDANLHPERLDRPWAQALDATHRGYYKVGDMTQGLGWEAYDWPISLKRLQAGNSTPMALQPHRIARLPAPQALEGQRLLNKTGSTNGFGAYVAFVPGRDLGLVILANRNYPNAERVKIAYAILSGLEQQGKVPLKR
KPC-2, sequence (Q9F663 25-293 limits assumed): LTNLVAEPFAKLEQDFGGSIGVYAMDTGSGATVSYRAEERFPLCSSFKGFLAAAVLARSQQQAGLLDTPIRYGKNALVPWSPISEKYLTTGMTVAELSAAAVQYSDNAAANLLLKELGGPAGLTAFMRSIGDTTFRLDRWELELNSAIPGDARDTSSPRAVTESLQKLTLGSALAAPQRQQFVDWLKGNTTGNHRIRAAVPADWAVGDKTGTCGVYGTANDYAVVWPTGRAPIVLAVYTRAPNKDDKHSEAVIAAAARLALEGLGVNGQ
OXA-23, sequence (Q9L4P2 18-273): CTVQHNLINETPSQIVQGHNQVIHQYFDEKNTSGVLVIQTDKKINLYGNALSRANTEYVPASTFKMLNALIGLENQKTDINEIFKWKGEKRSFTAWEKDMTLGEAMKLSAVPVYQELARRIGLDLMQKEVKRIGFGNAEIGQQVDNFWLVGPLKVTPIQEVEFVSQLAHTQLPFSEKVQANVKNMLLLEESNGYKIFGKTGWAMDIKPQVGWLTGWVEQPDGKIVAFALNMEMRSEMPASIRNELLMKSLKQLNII

## O=C(O)c1c(F)ccc2c1OB(O)[C@@H]1C[C@H]21 [Compound 13, (1aR,7bS)-5-fluoro-2-hydroxy-1a,7b-dihydro-1H-cyclopropa[c][1,2]benzoxaborinine-4-carboxylic acid]
[1]
  Ki: < 100 nM
[2]
  Ki: 100 to 1000 nM
[3]
  PAM1032/KPC-2 Biapenem MPC64: 2.5
[4]
  Ki: < 100 nM
[5]
  Ki: < 100 nM
[6]
  Ki: < 100 nM
[7]
  Ki: < 100 nM
[8]
  Ki: < 100 nM
[9]
  Ki: < 100 nM
[10]
  PAM1154/KPC-2 Biapenem MPC64: 2.5
[11]
  Ki: < 100 nM

## C[C@@H](O)[C@H]1C(=O)N2C(C(=O)[O-])=C(SC3Cn4cnc[n+]4C3)[C@H](C)[C@H]12 (stereo partly drawn) [Biapenem]
[12]
  MIC: 16 µg/mL
[3]; Pseudomonas aeruginosa, PAM1032/KPC-2, biapenem alone
  MIC: 32 µg/mL
[13]
  MIC: 16 µg/mL
[14]
  MIC: 32 µg/mL
[15]
  MIC: 16 µg/mL
[10]; Pseudomonas aeruginosa, PAM1154/KPC-2, biapenem alone
  MIC: 32 µg/mL

## O=C(O)c1c(F)ccc2c1OB(O)[C@H]1C[C@@H]21 [Compound 12, (1aS,7bR)-5-fluoro-2-hydroxy-1a,7b-dihydro-1H-cyclopropa[c][1,2]benzoxaborinine-4-carboxylic acid]
[1]
  Ki: > 1000 nM
[2]
  Ki: > 1000 nM
[3]
  PAM1032/KPC-2 Biapenem MPC64: 2.5
[4]
  Ki: < 100 nM
[5]
  Ki: < 100 nM
[6]
  Ki: < 100 nM
[7]
  Ki: 100 to 1000 nM
[8]
  Ki: < 100 nM
[9]
  Ki: < 100 nM
[10]
  PAM1154/KPC-2 Biapenem MPC64: 1.25
[11]
  Ki: < 100 nM

## C[C@H]1[C@H](NC(=O)/C(=N\OC(C)(C)C(=O)O)c2csc(N)n2)C(=O)N1S(=O)(=O)O [Aztreonam]
[16]
  MIC: > 128 µg/mL
[17]
  MIC: > 128 µg/mL
[18]
  MIC: > 128 µg/mL
[19]
  MIC: > 128 µg/mL
[20]
  MIC: 64 µg/mL
[21]
  MIC: > 128 µg/mL
[22]
  MIC: 64 µg/mL
[23]
  MIC: 128 µg/mL

## C[C@@H](O)[C@H]1C(=O)N2C(C(=O)O)=C(S[C@@H]3CN[C@H](C(=O)N(C)C)C3)[C@H](C)[C@H]12 [Meropenem]
[24]
  MIC: > 64 µg/mL
[25]
  MIC: 32 µg/mL

## CC1(C)[C@H](NC(=O)/C(=N\OCC(=O)O)c2csc(N)n2)C(=O)N1OS(=O)(=O)O [Tigemonam]
[26]
  Tigemonam MIC: >64 µg/mL
[27]
  Tigemonam MIC: >64 µg/mL
[28]
  Tigemonam MIC: >64 µg/mL
[29]
  Tigemonam MIC: >64 µg/mL
[30]
  Tigemonam MIC: 16 µg/mL
[31]
  Tigemonam MIC: 32 µg/mL
[32]
  Tigemonam MIC: >64 µg/mL
